Assay results: patent US11021467B2, “Phosphatidylinositol 3-kinase inhibitors” (Gilead Sciences, Inc., priority 2014, dated 2021)

Experiments:
Test in all cases: TR-FRET enzymatic activity assay against PI3K isoforms
Assay type in all cases: biochemical
[1] = target: PI3Kβ (Homo sapiens (Human), UniProt P42338); settings: PI3Kβ, TR-FRET, 2×Km ATP, 30 minutes at 25° C.
Excerpt: (§1) The compounds of formula (I) were characterized for their enzymatic activity against the PI3K isoforms. […] TR-FRET monitored the formation of 3,4,5-inositol triphosphate molecule that competed with fluorescently labeled PIP3 for binding to the GRP-1 pleckstrin homology domain protein.

[2] = target: PI3Kγ (Homo sapiens (Human), UniProt P48736); settings: 2×Km ATP, 30 minutes at 25° C.
Excerpt: as §1

[3] = target: PI3Kδ (Homo sapiens (Human), UniProt O00329); settings: 2×Km ATP, 30 minutes at 25° C.
Excerpt: as §1

Chain of PI3Kβ (P42338 whole entry, the tested form may be a part, canonical isoform): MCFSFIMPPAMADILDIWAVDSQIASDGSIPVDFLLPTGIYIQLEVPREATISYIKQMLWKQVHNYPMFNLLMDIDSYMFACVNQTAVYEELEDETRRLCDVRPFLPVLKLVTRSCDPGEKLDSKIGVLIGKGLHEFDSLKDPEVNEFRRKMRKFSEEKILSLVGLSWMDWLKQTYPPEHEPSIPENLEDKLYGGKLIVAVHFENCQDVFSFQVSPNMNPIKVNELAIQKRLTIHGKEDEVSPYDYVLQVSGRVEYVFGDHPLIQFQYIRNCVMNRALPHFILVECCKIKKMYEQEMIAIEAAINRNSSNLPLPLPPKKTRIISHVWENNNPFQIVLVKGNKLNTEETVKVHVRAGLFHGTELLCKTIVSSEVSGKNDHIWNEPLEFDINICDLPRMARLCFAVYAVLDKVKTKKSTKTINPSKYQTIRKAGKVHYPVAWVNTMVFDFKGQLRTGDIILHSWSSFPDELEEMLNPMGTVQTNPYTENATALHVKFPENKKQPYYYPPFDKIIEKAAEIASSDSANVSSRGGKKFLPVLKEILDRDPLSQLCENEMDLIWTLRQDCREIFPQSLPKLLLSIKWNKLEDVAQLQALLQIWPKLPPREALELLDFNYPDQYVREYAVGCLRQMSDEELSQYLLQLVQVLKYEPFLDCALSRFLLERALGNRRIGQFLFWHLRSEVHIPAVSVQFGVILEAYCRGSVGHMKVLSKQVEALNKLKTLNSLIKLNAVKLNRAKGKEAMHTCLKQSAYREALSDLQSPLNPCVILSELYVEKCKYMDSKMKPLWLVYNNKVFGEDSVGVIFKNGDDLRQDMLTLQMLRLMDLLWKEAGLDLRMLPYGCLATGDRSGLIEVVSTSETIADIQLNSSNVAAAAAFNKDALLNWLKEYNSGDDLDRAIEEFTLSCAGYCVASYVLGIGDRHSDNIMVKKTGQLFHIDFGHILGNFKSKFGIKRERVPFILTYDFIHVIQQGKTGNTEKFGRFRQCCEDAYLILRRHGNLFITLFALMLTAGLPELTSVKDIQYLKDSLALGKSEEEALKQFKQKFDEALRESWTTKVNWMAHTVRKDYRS
Chain of PI3Kβ (P27986 whole entry partner, the tested form may be a part, canonical isoform): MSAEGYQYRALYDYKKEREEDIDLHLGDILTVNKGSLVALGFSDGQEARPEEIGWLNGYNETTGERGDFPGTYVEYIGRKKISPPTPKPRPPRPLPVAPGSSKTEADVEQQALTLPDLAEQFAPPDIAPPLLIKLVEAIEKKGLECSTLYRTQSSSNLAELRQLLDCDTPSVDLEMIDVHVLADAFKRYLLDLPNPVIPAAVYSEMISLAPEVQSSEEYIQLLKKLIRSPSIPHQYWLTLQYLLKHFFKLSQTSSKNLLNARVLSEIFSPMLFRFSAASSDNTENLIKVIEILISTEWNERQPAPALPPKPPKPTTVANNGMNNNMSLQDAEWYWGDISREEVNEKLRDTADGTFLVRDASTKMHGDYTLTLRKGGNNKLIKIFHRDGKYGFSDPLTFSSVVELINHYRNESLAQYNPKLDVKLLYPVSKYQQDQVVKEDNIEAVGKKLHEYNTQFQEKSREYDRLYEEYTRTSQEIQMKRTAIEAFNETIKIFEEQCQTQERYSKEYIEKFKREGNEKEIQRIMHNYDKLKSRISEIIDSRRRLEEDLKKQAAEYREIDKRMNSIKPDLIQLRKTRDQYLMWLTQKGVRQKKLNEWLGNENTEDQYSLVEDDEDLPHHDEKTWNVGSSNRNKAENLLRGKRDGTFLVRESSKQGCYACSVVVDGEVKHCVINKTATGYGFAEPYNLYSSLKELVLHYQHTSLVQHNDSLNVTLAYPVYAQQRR
Chain of PI3Kγ (P48736 whole entry): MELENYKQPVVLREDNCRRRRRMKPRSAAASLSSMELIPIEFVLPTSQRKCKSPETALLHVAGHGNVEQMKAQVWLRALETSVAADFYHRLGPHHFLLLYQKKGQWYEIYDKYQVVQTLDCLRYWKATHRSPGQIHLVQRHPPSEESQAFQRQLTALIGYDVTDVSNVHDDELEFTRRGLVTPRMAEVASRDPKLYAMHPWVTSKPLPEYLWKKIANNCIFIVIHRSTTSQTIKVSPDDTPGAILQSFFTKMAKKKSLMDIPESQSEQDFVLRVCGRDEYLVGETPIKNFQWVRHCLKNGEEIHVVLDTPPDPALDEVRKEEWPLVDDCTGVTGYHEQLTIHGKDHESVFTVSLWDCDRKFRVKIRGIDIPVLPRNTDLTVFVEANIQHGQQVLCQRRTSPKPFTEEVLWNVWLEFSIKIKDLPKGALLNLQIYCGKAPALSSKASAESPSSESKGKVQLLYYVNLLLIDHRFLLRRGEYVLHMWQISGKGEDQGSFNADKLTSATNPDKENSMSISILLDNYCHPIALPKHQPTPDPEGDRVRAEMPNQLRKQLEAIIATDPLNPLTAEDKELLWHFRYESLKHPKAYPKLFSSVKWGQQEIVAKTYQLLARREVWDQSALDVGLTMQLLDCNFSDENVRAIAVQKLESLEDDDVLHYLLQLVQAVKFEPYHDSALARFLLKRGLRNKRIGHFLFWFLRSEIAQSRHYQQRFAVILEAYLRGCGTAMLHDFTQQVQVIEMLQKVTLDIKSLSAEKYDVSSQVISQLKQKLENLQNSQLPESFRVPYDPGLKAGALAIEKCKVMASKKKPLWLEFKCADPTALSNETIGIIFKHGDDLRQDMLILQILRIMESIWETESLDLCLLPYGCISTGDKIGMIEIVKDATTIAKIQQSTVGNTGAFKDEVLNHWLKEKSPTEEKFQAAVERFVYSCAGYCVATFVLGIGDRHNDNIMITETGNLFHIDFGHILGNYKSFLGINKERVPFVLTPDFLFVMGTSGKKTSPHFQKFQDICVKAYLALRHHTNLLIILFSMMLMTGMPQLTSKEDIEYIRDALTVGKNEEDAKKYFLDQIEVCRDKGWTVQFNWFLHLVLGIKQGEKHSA
Chain of PI3Kδ (O00329 whole entry): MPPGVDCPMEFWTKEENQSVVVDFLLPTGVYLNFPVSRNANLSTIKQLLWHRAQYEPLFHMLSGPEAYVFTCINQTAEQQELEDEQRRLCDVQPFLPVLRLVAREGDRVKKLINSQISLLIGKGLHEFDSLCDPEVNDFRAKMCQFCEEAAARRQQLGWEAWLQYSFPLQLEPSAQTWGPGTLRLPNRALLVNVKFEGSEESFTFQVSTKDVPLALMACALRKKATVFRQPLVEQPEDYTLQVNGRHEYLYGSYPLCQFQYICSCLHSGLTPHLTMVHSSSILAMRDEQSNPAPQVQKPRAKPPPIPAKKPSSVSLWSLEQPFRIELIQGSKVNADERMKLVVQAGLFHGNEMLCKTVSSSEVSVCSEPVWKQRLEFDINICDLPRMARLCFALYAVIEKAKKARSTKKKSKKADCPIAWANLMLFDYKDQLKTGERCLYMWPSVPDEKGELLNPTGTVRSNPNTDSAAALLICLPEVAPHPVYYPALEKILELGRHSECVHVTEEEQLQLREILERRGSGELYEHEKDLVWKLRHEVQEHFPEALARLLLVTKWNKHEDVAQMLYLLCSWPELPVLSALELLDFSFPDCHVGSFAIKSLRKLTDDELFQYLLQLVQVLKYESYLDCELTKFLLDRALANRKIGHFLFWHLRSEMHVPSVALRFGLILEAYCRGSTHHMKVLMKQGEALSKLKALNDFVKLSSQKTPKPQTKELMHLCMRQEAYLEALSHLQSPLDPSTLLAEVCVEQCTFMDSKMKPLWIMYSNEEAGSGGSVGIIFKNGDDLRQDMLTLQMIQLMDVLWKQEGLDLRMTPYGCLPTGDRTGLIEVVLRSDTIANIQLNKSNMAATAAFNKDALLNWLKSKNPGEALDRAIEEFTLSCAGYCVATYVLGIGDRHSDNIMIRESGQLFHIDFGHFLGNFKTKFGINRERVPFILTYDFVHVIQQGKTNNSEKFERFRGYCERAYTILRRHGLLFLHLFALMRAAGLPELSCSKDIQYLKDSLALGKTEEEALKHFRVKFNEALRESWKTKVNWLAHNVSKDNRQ
Chain of PI3Kδ (P27986 whole entry partner): as the sequence (P27986 whole entry partner, the tested form may be a part, canonical isoform) above

| Structure (SMILES) | IC50 [1] [nM] | IC50 [2] [nM] | IC50 [3] [nM] |
| --- | --- | --- | --- |
| C[C@H](Nc1nc(N)nc(N)c1C#N)c1nc2cccc(Cl)c2c(=O)n1Cc1nc[nH]n1 [Compound 81, (S)-4-((1-(3-((1H-1,2,4-triazol-3-yl)methyl)-5-chloro-4-oxo-3,4-dihydroquinazolin-2-yl)ethyl)amino)-2,6-diaminopyrimidine-5-carbonitrile] | 47 | 320 | 5 |
| C[C@H](Nc1ncnc(N)c1C#N)c1nc2cccc(Cl)c2c(=O)n1[C@H]1C[C@@H](O)C1 [Compound 82, 4-amino-6-(((S)-1-(5-chloro-3-((1S,3R)-3-hydroxycyclobutyl)-4-oxo-3,4-dihydroquinazolin-2-yl)ethyl)amino)pyrimidine-5-carbonitrile] | 150 | 2300 | 5 |
| C[C@H](Nc1ncnc(N)c1C#N)c1nc2cccc(Cl)c2c(=O)n1CCCO [Compound 83, (S)-4-amino-6-((1-(5-chloro-3-(3-hydroxypropyl)-4-oxo-3,4-dihydroquinazolin-2-yl)ethyl)amino)pyrimidine-5-carbonitrile] | 180 | 2900 | 6 |
| CC(CCO)n1c([C@H](C)Nc2ncnc(N)c2C#N)nc2cccc(Cl)c2c1=O (stereo partly drawn) [Compound 84, 4-amino-6-(((1S)-1-(5-chloro-3-(4-hydroxybutan-2-yl)-4-oxo-3,4-dihydroquinazolin-2-yl)ethyl)amino)pyrimidine-5-carbonitrile] | 260 | 2900 | 4 |
| C[C@H](Nc1ncnc(N)c1C#N)c1nc2cccc(Cl)c2c(=O)n1[C@H]1CC[C@H](O)CC1 [Compound 85, (S)-4-amino-6-((1-(5-chloro-3-(4-hydroxycyclohexyl)-4-oxo-3,4-dihydroquinazolin-2-yl)ethyl)amino)pyrimidine-5-carbonitrile] | 92 | 1200 | 3 |
| C[C@H](Nc1ncnc(N)c1C#N)c1nc2cccc(Cl)c2c(=O)n1[C@H]1C[C@H](N)C1 [Compound 86, (S)-4-amino-6-((1-(3-(3-aminocyclobutyl)-5-chloro-4-oxo-3,4-dihydroquinazolin-2-yl)ethyl)amino)pyrimidine-5-carbonitrile] | 620 | ≥ 10000 | 24 |
| C[C@H](Nc1ncnc(N)c1C#N)c1nc2cccc(Cl)c2c(=O)n1CC1CCNCC1 [Compound 87, (S)-4-amino-6-((1-(5-chloro-4-oxo-3-(piperidin-4-ylmethyl)-3,4-dihydroquinazolin-2-yl)ethyl)amino)pyrimidine-5-carbonitrile] | 150 | ≥ 10000 | 4 |
| C[C@H](Nc1ncnc(N)c1C#N)c1nc2cccc(Cl)c2c(=O)n1CC1CNCCO1 (stereo partly drawn) [Compound 88, 4-amino-6-(((1S)-1-(5-chloro-3-(morpholin-2-ylmethyl)-4-oxo-3,4-dihydroquinazolin-2-yl)ethyl)amino)pyrimidine-5-carbonitrile] | 250 | ≥ 10000 | 42 |
| C[C@H](Nc1ncnc(N)c1C#N)c1nc2cccc(Cl)c2c(=O)n1CC1CCNC1 (stereo partly drawn) [Compound 89, 4-amino-6-(((1S)-1-(5-chloro-4-oxo-3-(pyrrolidin-3-ylmethyl)-3,4-dihydroquinazolin-2-yl)ethyl)amino)pyrimidine-5-carbonitrile] | 54 | ≥ 10000 | 3 |
| C[C@H](Nc1ncnc(N)c1C#N)c1nc2cccc(Cl)c2c(=O)n1CC1CCCN1 (stereo partly drawn) [Compound 90, 4-amino-6-(((1S)-1-(5-chloro-4-oxo-3-(pyrrolidin-2-ylmethyl)-3,4-dihydroquinazolin-2-yl)ethyl)amino)pyrimidine-5-carbonitrile] | 2800 | ≥ 10000 | 37 |
| C[C@H](Nc1ncnc(N)c1C#N)c1nc2cccc(Cl)c2c(=O)n1CC1CCCCN1 (stereo partly drawn) [Compound 91, 4-amino-6-(((1S)-1-(5-chloro-4-oxo-3-(piperidin-2-ylmethyl)-3,4-dihydroquinazolin-2-yl)ethyl)amino)pyrimidine-5-carbonitrile] | 1700 | ≥ 10000 | 95 |

Further lines, results first:

| IC50 [1] [nM] | IC50 [2] [nM] | IC50 [3] [nM] | Structure (SMILES) |
| --- | --- | --- | --- |
| 320 | ≥ 10000 | 7 | C[C@H](Nc1ncnc(N)c1C#N)c1nc2cccc(Cl)c2c(=O)n1CC1CCCNC1 (stereo partly drawn) [Compound 92, 4-amino-6-(((1S)-1-(5-chloro-4-oxo-3-(piperidin-3-ylmethyl)-3,4-dihydroquinazolin-2-yl)ethyl)amino)pyrimidine-5-carbonitrile] |
| 4 | 158 | 1 | C[C@H](Nc1nc(N)nc(N)c1C#N)c1nc2cccc(Cl)c2c(=O)n1[C@H]1C[C@@H](O)C1 [Compound 93, 2,4-diamino-6-(((S)-1-(5-chloro-3-((cis)-3-hydroxycyclobutyl)-4-oxo-3,4-dihydroquinazolin-2-yl)ethyl)amino)pyrimidine-5-carbonitrile] |
| 190 | 1590 | 14 | C[C@H](Nc1nc(N)nc(N)c1Cl)c1nc2cccc(Cl)c2c(=O)n1[C@H]1C[C@@H](O)C1 [Compound 94, 5-chloro-2-((S)-1-((2,6-diamino-5-chloropyrimidin-4-yl)amino)ethyl)-3-((cis)-3-hydroxycyclobutyl)quinazolin-4(3H)-one] |
| 720 | ≥ 10000 | 16 | Nc1nc(N)c(Cl)c(N[C@H](c2nc3c(Cl)ccc(Cl)c3c(=O)n2[C@H]2C[C@@H](O)C2)C2CC2)n1 [Compound 95, 5,8-dichloro-2-((S)-cyclopropyl((2,6-diamino-5-chloropyrimidin-4-yl)amino)methyl)-3-((cis)-3-hydroxycyclobutyl)quinazolin-4(3H)-one] |
| 10 | 960 | 2 | N#Cc1c(N)nc(N)nc1N[C@H](c1nc2c(Cl)ccc(Cl)c2c(=O)n1[C@H]1C[C@@H](O)C1)C1CC1 [Compound 96, 2,4-diamino-6-(((S)-cyclopropyl(5,8-dichloro-3-((cis)-3-hydroxycyclobutyl)-4-oxo-3,4-dihydroquinazolin-2-yl)methyl)amino)pyrimidine-5-carbonitrile] |
| 58 | 2800 | 8 | N#Cc1c(N)nc(N)nc1N[C@H](c1nc2c(Cl)cc(F)cc2c(=O)n1[C@H]1C[C@H](O)C1)C1CC1 [Compound 97, 2,4-diamino-6-(((S)-(8-chloro-6-fluoro-3-((trans)-3-hydroxycyclobutyl)-4-oxo-3,4-dihydroquinazolin-2-yl)(cyclopropyl)methyl)amino)pyrimidine-5-carbonitrile] |
| 330 | 3200 | 20 | C[C@H](Nc1nc(N)nc(N)c1C#N)c1nc2c(Cl)cc(F)cc2c(=O)n1[C@H]1C[C@H](O)C1 [Compound 98, 2,4-diamino-6-(((S)-1-(8-chloro-6-fluoro-3-((trans)-3-hydroxycyclobutyl)-4-oxo-3,4-dihydroquinazolin-2-yl)ethyl)amino)pyrimidine-5-carbonitrile] |
| 290 | 2400 | 9 | C[C@H](Nc1nc(N)nc(N)c1C#N)c1nc2c(Cl)cc(F)cc2c(=O)n1[C@H]1C[C@@H](O)C1 [Compound 99, 2,4-diamino-6-(((S)-1-(8-chloro-6-fluoro-3-((cis)-3-hydroxycyclobutyl)-4-oxo-3,4-dihydroquinazolin-2-yl)ethyl)amino)pyrimidine-5-carbonitrile] |
| 44 | 2900 | 3 | N#Cc1c(N)nc(N)nc1N[C@H](c1nc2c(Cl)ccc(Cl)c2c(=O)n1[C@H]1C[C@H](O)C1)C1CC1 [Compound 100, 2,4-diamino-6-(((S)-cyclopropyl(5,8-dichloro-3-((trans)-3-hydroxycyclobutyl)-4-oxo-3,4-dihydroquinazolin-2-yl)methyl)amino)pyrimidine-5-carbonitrile] |
| 140 | 3200 | 12 | C[C@H](Nc1nc(N)nc(N)c1C#N)c1nc2c(Cl)ccc(Cl)c2c(=O)n1[C@H]1C[C@H](O)C1 [Compound 101, 2,4-diamino-6-(((S)-1-(5,8-dichloro-3-((trans)-3-hydroxycyclobutyl)-4-oxo-3,4-dihydroquinazolin-2-yl)ethyl)amino)pyrimidine-5-carbonitrile] |
| 66 | 1100 | 2 | N#Cc1c(N)nc(N)nc1N[C@H](c1nc2c(Cl)cc(F)cc2c(=O)n1[C@H]1C[C@@H](O)C1)C1CC1 [Compound 102, 2,4-diamino-6-(((S)-(8-chloro-6-fluoro-3-((cis)-3-hydroxycyclobutyl)-4-oxo-3,4-dihydroquinazolin-2-yl)(cyclopropyl)methyl)amino)pyrimidine-5-carbonitrile] |
| 21 | 2600 | 5 | C[C@H](Nc1nc(N)nc(N)c1C#N)c1nc2c(Cl)ccc(Cl)c2c(=O)n1[C@H]1C[C@@H](O)C1 [Compound 103, 2,4-diamino-6-(((S)-1-(5,8-dichloro-3-((cis)-3-hydroxycyclobutyl)-4-oxo-3,4-dihydroquinazolin-2-yl)ethyl)amino)pyrimidine-5-carbonitrile] |
| 58 | 78 | 9 | C[C@H](Nc1nc(N)nc(N)c1C#N)c1nc2cccc(Cl)c2c(=O)n1CCC#N [Compound 104, (S)-2,4-diamino-6-((1-(5-chloro-3-(2-cyanoethyl)-4-oxo-3,4-dihydroquinazolin-2-yl)ethyl)amino)pyrimidine-5-carbonitrile] |
| 820 | 8400 | 9 | COCCCn1c([C@H](C)Nc2ncnc(N)c2C#N)nc2cccc(Cl)c2c1=O [Compound 105, (S)-4-amino-6-((1-(5-chloro-3-(3-methoxypropyl)-4-oxo-3,4-dihydroquinazolin-2-yl)ethyl)amino)pyrimidine-5-carbonitrile] |
